Test results taken from patent US11938121B2, “Treatment of infections and biofilm formation using a cellulose synthase inhibitor” (Purdue Research Foundation, priority 2020, dated 2024).

Target: T1, YFP-AtCESA6 (Arabidopsis thaliana, UniProt Q94JQ6)
T1 construct: expressed in transfected cells; host or cells: transgenic Arabidopsis thaliana YFP-AtCESA6 seedlings (total protein extract for DARTS; root epidermal cells for imaging)
T1 sequence (Q94JQ6 1-1084): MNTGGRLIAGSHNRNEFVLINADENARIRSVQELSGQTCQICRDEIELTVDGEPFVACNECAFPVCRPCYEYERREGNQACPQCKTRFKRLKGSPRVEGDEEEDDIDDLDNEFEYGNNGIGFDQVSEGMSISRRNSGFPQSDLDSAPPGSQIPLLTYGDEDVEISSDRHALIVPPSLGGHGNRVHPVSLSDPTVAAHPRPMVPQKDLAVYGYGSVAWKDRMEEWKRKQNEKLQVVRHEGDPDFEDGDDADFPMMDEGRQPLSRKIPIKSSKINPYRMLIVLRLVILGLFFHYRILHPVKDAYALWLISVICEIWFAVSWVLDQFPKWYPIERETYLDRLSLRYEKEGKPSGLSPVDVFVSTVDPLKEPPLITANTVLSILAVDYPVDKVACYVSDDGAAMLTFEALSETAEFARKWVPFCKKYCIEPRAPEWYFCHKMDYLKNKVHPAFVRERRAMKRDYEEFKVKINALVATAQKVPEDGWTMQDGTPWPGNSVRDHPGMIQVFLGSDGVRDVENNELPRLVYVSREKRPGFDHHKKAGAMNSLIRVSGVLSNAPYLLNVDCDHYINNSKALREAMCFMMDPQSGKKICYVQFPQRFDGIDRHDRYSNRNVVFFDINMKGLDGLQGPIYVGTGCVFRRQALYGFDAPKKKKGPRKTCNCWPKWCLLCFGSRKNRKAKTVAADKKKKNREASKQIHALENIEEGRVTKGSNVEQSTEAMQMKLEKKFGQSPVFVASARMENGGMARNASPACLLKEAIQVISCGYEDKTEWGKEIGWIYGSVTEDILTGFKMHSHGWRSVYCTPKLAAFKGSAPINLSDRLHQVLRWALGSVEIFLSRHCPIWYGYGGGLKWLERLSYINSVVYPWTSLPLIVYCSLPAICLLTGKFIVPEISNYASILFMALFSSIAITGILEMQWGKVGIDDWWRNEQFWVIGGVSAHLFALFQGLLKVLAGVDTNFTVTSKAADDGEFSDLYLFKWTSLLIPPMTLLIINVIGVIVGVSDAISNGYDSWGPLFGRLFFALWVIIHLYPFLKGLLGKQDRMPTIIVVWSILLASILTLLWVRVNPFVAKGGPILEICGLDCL
T1 sequence (O48946 1-1081 partner): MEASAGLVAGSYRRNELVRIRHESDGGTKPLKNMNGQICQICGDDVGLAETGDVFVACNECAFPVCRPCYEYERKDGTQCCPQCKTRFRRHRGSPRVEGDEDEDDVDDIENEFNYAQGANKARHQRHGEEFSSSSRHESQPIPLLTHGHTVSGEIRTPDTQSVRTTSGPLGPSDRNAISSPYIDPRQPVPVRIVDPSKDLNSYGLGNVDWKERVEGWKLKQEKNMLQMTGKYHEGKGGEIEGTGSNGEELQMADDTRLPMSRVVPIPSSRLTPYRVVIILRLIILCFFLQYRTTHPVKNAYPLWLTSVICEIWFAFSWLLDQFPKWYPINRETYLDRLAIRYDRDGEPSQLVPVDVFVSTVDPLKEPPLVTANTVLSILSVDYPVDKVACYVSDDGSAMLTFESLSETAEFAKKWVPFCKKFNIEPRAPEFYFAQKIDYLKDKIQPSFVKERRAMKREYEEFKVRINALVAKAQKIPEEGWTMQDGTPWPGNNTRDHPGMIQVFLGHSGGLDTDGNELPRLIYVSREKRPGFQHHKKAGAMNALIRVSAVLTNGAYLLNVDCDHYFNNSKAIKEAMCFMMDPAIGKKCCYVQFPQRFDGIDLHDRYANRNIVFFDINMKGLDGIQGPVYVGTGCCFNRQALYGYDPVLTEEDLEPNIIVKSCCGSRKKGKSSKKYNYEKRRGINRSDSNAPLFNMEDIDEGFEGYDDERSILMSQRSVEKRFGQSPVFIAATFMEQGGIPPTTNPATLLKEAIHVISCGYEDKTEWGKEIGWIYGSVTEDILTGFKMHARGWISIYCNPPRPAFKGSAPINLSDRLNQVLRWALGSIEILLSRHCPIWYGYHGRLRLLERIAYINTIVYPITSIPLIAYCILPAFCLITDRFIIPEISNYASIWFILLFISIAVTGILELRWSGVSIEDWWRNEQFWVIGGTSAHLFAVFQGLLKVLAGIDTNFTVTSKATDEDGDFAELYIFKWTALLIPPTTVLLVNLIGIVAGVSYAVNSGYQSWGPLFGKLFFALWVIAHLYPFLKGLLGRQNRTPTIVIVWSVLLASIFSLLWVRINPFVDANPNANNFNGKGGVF
T1 sequence (Q941L0 1-1065 partner): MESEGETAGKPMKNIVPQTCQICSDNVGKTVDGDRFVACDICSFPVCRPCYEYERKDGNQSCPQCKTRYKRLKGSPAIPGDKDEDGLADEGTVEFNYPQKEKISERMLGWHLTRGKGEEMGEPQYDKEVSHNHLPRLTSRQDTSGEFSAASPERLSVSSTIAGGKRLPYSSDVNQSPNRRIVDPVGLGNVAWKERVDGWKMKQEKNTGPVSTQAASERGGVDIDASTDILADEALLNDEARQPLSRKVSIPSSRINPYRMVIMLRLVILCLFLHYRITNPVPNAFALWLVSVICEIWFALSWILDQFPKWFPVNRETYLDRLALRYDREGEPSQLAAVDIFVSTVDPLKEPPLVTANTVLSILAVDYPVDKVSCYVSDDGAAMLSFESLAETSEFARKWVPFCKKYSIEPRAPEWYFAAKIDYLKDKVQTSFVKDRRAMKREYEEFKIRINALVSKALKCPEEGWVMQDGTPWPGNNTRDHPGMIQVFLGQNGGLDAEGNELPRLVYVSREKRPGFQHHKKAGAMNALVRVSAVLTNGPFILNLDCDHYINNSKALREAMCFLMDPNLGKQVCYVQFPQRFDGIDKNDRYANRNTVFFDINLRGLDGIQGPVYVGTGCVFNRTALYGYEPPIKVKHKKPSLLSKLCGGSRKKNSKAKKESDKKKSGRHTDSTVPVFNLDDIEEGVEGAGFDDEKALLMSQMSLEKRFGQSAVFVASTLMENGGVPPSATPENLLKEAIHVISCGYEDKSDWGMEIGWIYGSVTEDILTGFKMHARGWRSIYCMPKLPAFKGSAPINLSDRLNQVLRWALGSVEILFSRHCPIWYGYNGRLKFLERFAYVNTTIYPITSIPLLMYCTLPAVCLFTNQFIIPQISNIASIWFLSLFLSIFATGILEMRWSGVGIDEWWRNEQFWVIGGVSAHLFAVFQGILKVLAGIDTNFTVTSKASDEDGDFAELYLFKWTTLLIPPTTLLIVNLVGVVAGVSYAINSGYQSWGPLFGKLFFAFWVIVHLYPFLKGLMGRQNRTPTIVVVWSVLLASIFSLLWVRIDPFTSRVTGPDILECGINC
Assay: DARTS assay
Assay type: binding
Conditions: total protein from YFP-AtCESA6 seedlings, vs DMSO
Protocol: To further validate that ES20-1 targets AtCESA6, we looked for a direct interaction between ES20-1 and AtCESA6. We performed a DARTS (Drug Affinity Responsive Target Stability) assay to test the interaction of ES20-1 with endogenous AtCESA6. We incubated total protein from YFP-AtCESA6 seedlings with either DMSO (as a control) or ES20-1 and digested the mixtures with protease. […] We also purified the central cytosolic domain of AtCESA6 (CESA6c) from E. coli (FIG. 3J) and performed a Microscale thermophoresis (MST) assay to test its interaction with ES20-1. […] We purified AtCESA6 central cytoplasmic domain carrying missense mutation P595S (CESA6c^P595S) and tested its interaction with ES20 and ES20-1 (3O).
To test for an interaction between AtCESA6 and ES20-1 using a DARTS assay, 7-day-old YFP-AtCESA6 light-grown seedlings were harvested and ground to a powder in liquid nitrogen. The ground tissue was homogenized in lysis buffer (50 mM Tris-HCl, pH 7.5, 150 mM NaCl, 0.5% Triton X-100, 2 mM DTT, one tablet/50 mL EDTA free Pierce protease inhibitor [Thermo Fisher]) at 2:1 ratio (2 mL buffer: 1 g tissue). […] The X-ray films were scanned, and the signal intensity of each protein band was quantified after background subtraction using Image J. The relative intensities were quantified by dividing the values in ES20-1-treated samples by the values in DMSO-treated samples.

Cc1ccccc1C(=O)NNC(=S)NC(=O)c1ccccc1 [ES20-1]
interaction with endogenous AtCESA6 (protection from protease): interacts with endogenous AtCESA6 and protects it from degradation
